The test system of one experiment is advanced renal cancer. As to the kind of experiment: Treatment of a human patient having advanced renal cancer with epothilone B plus capecitabine. It counts as in vivo. The settings on record: Example 1, one human patient, combination: epothilone B 0.5 mg/m^2 five minutes bolus infusion weekly for 3 weeks, one week off, plus capecitabine orally 1250 mg/m^2 twice daily for two weeks, cycle repeated several times. The procedure: A human patient having advanced renal cancer receives 0.5 mg/m^2 of epothilone B as a five minutes bolus infusion weekly for 3 weeks followed by one week off. Starting in the second week of the epothilone treatment and at least two hours after said treatment, capecitabine is applied orally to said patient twice daily at a dosage of 1250 mg/m^2 for two weeks followed by one week off. The whole treatment cycle is applied to the patient several times. Stable disease is observed for about 8 months.

The next experiment concerns advanced colon cancer. As to the kind of experiment: Treatment of a human patient having advanced colon cancer with epothilone B plus gemcitabine hydrochloride. It counts as in vivo. The following applies: Example 5, one human patient, combination: epothilone B 0.5 mg/m^2 five minutes bolus infusion weekly for 3 weeks, one week off, plus gemcitabine hydrochloride 800 mg/m^2 twice daily, cycle repeated several times. The procedure:
A human patient having advanced colon cancer receives 0.5 mg/m^2 of epothilone B as a five minutes bolus infusion weekly for 3 weeks followed by one week off. Immediately following said treatment, gemcitabine hydrochloride is applied orally to said patient twice daily at a dosage of 800 mg/m^2. The whole treatment cycle is applied to the patient several times. Stable disease is observed for about […] months.

Take `C/C(=C\c1csc(C)n1)[C@@H]1C[C@@H]2O[C@]2(C)CCC[C@H](C)[C@H](O)[C@@H](C)C(=O)C(C)(C)[C@@H](O)CC(=O)O1` [epothilone B]: the “Stable disease observed for (duration)” value in the experiment with advanced renal cancer is on record as “about 8 months”; in the experiment with advanced colon cancer it was “about 3%”.

Source of the values: patent US20110082101A1, “COMBINATIONS COMPRISING EPOTHILONES AND ANTI-METABOLITES” (priority 2002, published 2011).
